{"source": "PubChem BioAssay AID2305", "about": "(GlaxoSmithKline (GSK), 2010)", "data": [{"test_system": "P. falciparum 3D7 growth, pLDH absorbance", "assay": "blood-stage malaria parasite growth potency – strain 3D7, dose response (AID 2305)", "units": {"IC50": "nM"}, "values": [{"smiles": "O=C(N[C@@H](Cc1cc(F)cc(F)c1)[C@H](O)CNCc1cccc(C(F)(F)F)c1)c1cc(C2CCCC2)cc(N2CCCC2=O)c1", "IC50": 800}, {"smiles": "O=C(/C=C/c1ccc(Cl)c(Cl)c1)NCCCCN1CCCN(C(=O)Nc2ccc(F)c(Cl)c2)CC1", "IC50": 1510}, {"smiles": "COc1ccc(Nc2nc(NC3CCCC3)cc(-c3ccc(OC)cc3)n2)cc1", "IC50": 1030}, {"smiles": "COc1cc2nccc(Nc3ccc(NC(=O)c4ccc(C)cc4)c(O)c3)c2cc1OC", "IC50": 170}, {"smiles": "Cc1c(OC(C)C)nc2ccccc2c1C(=O)N[C@H](c1cccc(F)c1)C1CC1", "IC50": 1090}, {"smiles": "Cc1cc(C)n2nc(C(=O)Nc3cc(C(F)(F)F)ccc3N3CCOCC3)nc2n1", "IC50": 120}, {"smiles": "Cc1[nH]c(C)c(-c2ccc(S(=O)(=O)c3ccc(Cl)cc3)cc2)c(=O)c1Cl", "IC50": 140}, {"smiles": "CN1CCN(c2ccnc3ccc(NC(=O)Nc4cccc5c(C#N)cccc45)cc23)CC1", "IC50": 1050}, {"smiles": "COc1cc2ncnc(Nc3ccc4nc(Cc5ccccc5)[nH]c4c3)c2cc1OC", "IC50": 1480}, {"smiles": "CCN1CCC(N(Cc2ccc(-c3ccc(C(F)(F)F)cc3)cc2)C(=O)Cn2c(CCc3cccc(F)c3F)cc(=O)c3ccc(OCc4ccccc4)cc32)CC1", "IC50": 370}, {"smiles": "Cc1nc2nc(N)nc(N)c2c(C)c1Cc1ccccc1I", "IC50": 350}, {"smiles": "CC(C)(CNC(=O)[C@@H]1CCCN(CCOc2ccc(F)c(F)c2)C1)c1nc(-c2ccc(Cl)c(O)c2)c(-c2ccncc2)[nH]1", "IC50": 720}, {"smiles": "CN1CCN(c2ccnc3ccc(NC(=O)Nc4ccc5ccccc5c4)cc23)CC1", "IC50": 80}, {"smiles": "CCOc1ccc(OCC(=O)Nc2nc(-c3ccc(OC)cc3)c(C)s2)cc1", "IC50": 220}, {"smiles": "COc1ccc2c(C)cc(NCCCN(C)C)nc2c1", "IC50": 1100}, {"smiles": "CC[C@H]1CN2CC[C@H]1C[C@H]2[C@H](O)c1cc(-c2ccccc2F)nc2ccc(OC)cc12", "IC50": 80}, {"smiles": "Clc1ccc(-c2ccc(CNCCCN3CCCC3)cc2)cc1", "IC50": 1060}, {"smiles": "O=C(C=Cc1ccccc1)Nc1ccc(C#CC=Cc2ccc(NC(=O)C=Cc3ccccc3)cc2)cc1", "IC50": 850}, {"smiles": "Nc1ncc(-c2ccc(F)cc2)cc1-c1nc2ccc(Cl)cc2[nH]1", "IC50": 750}, {"smiles": "O=C(NC1CCN(Cc2ccccc2)CC1)c1ccc(-c2nc3cc(Cl)c(Cl)cc3[nH]2)c(F)c1", "IC50": 740}, {"smiles": "O=C(Nc1cccc(CN2CCCN(Cc3cccnc3)CC2)c1)c1cc2ccccc2s1", "IC50": 1470}, {"smiles": "CC(C)(C)c1ccc(S(=O)(=O)Nc2ccccc2Cn2nc(N3CCNCC3)ccc2=O)cc1", "IC50": 850}, {"smiles": "O=[N+]([O-])c1ccc(Nc2nc(NN=Cc3cc(Cl)cc(Cl)c3O)nc(Nc3ccccc3)n2)cc1", "IC50": 670}, {"smiles": "O=C(Nc1cccc(CN2CCCN(Cc3ccccc3)CC2)c1)c1ccc(Cl)c(Cl)c1", "IC50": 900}, {"smiles": "O=C(NCc1cccc(F)c1)Nc1cccc(-c2ccc(-c3nc4ccc(F)cc4[nH]3)cc2)c1", "IC50": 1050}, {"smiles": "CCCc1cc(=O)[nH]c(-n2nc(C)cc2NC(=O)c2cc3ccccc3o2)n1", "IC50": 1110}, {"smiles": "CCCCc1cc(NCc2ccncc2)nc(Nc2cccc(OC)c2)n1", "IC50": 740}, {"smiles": "O=C(CCNc1ccnc(NCCc2ccccc2)n1)Nc1ccccc1", "IC50": 840}, {"smiles": "O=C(/C=C/c1ccc(Cl)c(Cl)c1)N1CCC(CN2CCC(c3c(Br)[nH]c4ccccc34)CC2)CC1", "IC50": 290}, {"smiles": "c1csc(-c2nc(N3CCCCC3)ncc2-c2ccsc2)n1", "IC50": 140}, {"smiles": "CCC1CN2CCc3c([nH]c4ccccc34)C2CC1CC1=NCCc2c1[nH]c1ccccc21", "note": "(stereo not given)", "IC50": 740}, {"smiles": "COc1ccc(-c2ccc(NC(=O)c3cccc(F)c3)cc2)cc1CN1CCCN(C)CC1", "IC50": 670}, {"smiles": "O=S(=O)(NCCN1CCCC1)c1ccc(-c2ccc(CNCc3ccsc3)cc2)cc1F", "IC50": 810}, {"smiles": "c1cncc(CCNCc2ccc(-c3ccc(-c4nc5ccccc5[nH]4)s3)cc2)c1", "IC50": 210}, {"smiles": "NC1CCN(Cc2ccc(-c3ccc(-c4nc5ccccc5[nH]4)cc3)cc2)C1", "note": "(stereo not given)", "IC50": 150}, {"smiles": "NC1CCN(c2nc(NCCCc3ccc(O)cc3)nc(NCc3ccccc3-c3ccccc3)n2)CC1", "IC50": 680}, {"smiles": "NC(CC1CC(=O)N1CC(=O)O)C(=O)O", "note": "(stereo not given)", "IC50": 160}, {"smiles": "O=C(N[C@@H](Cc1ccccc1)C(=O)NCc1cccc(C(F)(F)F)c1)c1ccc(O)c(-c2ccc(Cl)c(Cl)c2)c1", "IC50": 700}, {"smiles": "CO/C(=C\\C=C\\c1cc2cc(Cl)c(Cl)cc2[nH]1)C(=O)NCCCN1CCN(c2cccc(CCCO)c2)CC1", "IC50": 1030}, {"smiles": "Cc1[nH]c(C)c(-c2ccc(Oc3cccc(Cl)c3)cc2)c(=O)c1Br", "IC50": 30}, {"smiles": "O=C(NCCN1CCCC1)c1ccc(-c2ccc(-c3nc4ccc(C(F)(F)F)cc4[nH]3)s2)cc1", "IC50": 750}, {"smiles": "CCN(CC)CCN(Cc1ccc(-c2ccc(C(F)(F)F)cc2)cc1)C(=O)Cn1c(/C=C/c2ccco2)nc(=O)c2ccccc21", "IC50": 870}, {"smiles": "O=c1ccccn1CCCC1CCCCN1", "note": "(stereo not given)", "IC50": 810}, {"smiles": "CN1CCN(CCCN(Cc2csc(-c3ccc(CNCc4ccccc4)cc3)n2)C(=O)c2cc(F)cc(F)c2)CC1", "IC50": 710}, {"smiles": "COc1ccc(Cn2c(Nc3cccc(C(F)(F)F)c3)nc3cc(C(=O)NC4CC4)cnc32)cc1Cl", "IC50": 730}, {"smiles": "Cc1cccc2[nH]c(-c3cccc(-c4ccc(CN5CCC(C(N)=O)CC5)cc4)c3)nc12", "IC50": 850}, {"smiles": "CCOC(=O)NC1=NC(C)(C)N(OCc2ccc(Cl)c(Cl)c2)C(N)=N1", "IC50": 40}, {"smiles": "N#Cc1ccc(C(=O)Nc2cccc(-c3ccc(CN4CCCC4)cc3)c2)cc1", "IC50": 720}, {"smiles": "Nc1nc(N)c2cc(NC(=O)c3ccc(Cl)c(Cl)c3)ccc2n1", "IC50": 150}, {"smiles": "CCC(C)NC(=O)CN1CN(c2ccccc2)C2(CCN(C(=O)c3ccc(C(C)(C)C)cc3)CC2)C1=O", "note": "(stereo not given)", "IC50": 130}, {"smiles": "Cn1cncc1C(=O)Nc1cccc(-c2ccc(-c3nc4ccccc4[nH]3)s2)c1", "IC50": 800}, {"smiles": "CCCC(C)c1ccc(N2C(N)=NC(N)=NC2(C)C)cc1", "note": "(stereo not given)", "IC50": 10}, {"smiles": "O=C(NCCCN1CCC(NC(=O)c2ccc(-c3cccnc3)cc2)CC1)c1ccc(Cl)c(Cl)c1", "IC50": 850}, {"smiles": "COc1ccc(CNC(=O)NC2CCN(c3ccnc(Nc4cc(OC)c(OC)c(OC)c4)n3)C2)cc1", "note": "(stereo not given)", "IC50": 950}, {"smiles": "COc1cccc2c(C)cc(NCc3ccc(Cl)cc3)nc12", "IC50": 860}, {"smiles": "COc1ccc2nccc([C@@H](O)CN3CCC(NC(=O)/C=C/c4cccc(C)c4)CC3)c2c1", "IC50": 1250}, {"smiles": "c1ccc2[nH]c(-c3ccc(-c4ccc(CN5CCN(CCN6CCOCC6)CC5)cc4)cc3)nc2c1", "IC50": 160}, {"smiles": "Oc1ccc2[nH]cc(C3=CCN(Cc4ccccc4)CC3)c2c1", "IC50": 980}, {"smiles": "COc1ccc2nc3cc(Cl)ccc3c(N)c2c1", "IC50": 170}, {"smiles": "COc1ccc(CNCc2ccsc2)cc1-c1ccc(S(=O)(=O)NCCN2CCCC2)c(C)c1", "IC50": 900}, {"smiles": "NS(=O)(=O)CCc1cccc(Nc2nccc(-c3c(-c4cccc(NC(=O)c5c(F)cccc5F)c4)nn4ccccc34)n2)c1", "IC50": 60}, {"smiles": "Cc1nc(-c2ccc3c(c2)CCN(CCC2CCC(NC(=O)c4cc5cccc(Cl)c5[nH]4)CC2)CC3)no1", "note": "(stereo not given)", "IC50": 630}, {"smiles": "COC(=O)c1ccc(CC(C)NCC(O)c2cccc(C(F)(F)F)c2)c(Cl)c1", "note": "(stereo not given)", "IC50": 850}, {"smiles": "Cc1cccc2c(N=NC(=S)N(C)C)c(O)[nH]c12", "IC50": 750}, {"smiles": "CCn1c(Sc2ccc([N+](=O)[O-])c(C#N)c2)nnc1-c1ccc(Cl)cc1", "IC50": 1000}, {"smiles": "CN1CCN(c2cc(NC(=O)c3ccc(-c4ccc(Cl)cc4)cc3)ccc2Cl)CC1", "IC50": 610}, {"smiles": "Cc1cc(N2CC=CCC2)nc(/N=C(\\N)Nc2ccc(Cl)cc2)n1", "IC50": 780}, {"smiles": "Cc1cccc(C(=O)Nc2ccnc(N(C)CCCN(C)Cc3cccc(O)c3)c2)c1", "IC50": 970}, {"smiles": "N#Cc1cc(C(=O)c2cc(Br)ccc2O)cn(-c2cc(Cl)cc(Cl)c2)c1=O", "IC50": 880}, {"smiles": "COc1cc2c(cc1OC)-c1cc(=Nc3c(C)cc(C)cc3C)n(C)c(=O)n1CC2", "IC50": 1110}, {"smiles": "CCCCc1ccc(NC(=O)Nc2ccc3c(c2)CCNCC3)cc1", "IC50": 580}, {"smiles": "O=C1C(c2ccccc2)=C(Nc2ccc([N+](=O)[O-])cc2)c2ccccc21", "IC50": 870}, {"smiles": "O=C(NC1CC1)c1cnc(N2CCC(c3ccccc3)CC2)c(Cl)c1", "IC50": 850}, {"smiles": "Nc1nc(N)c2c(CCc3ccc4ccccc4c3)cccc2n1", "IC50": 690}, {"smiles": "COc1cc2ncnc(NCCc3ccccc3Cl)c2cc1OC", "IC50": 1120}, {"smiles": "CCN1CCN(CCCCNc2c3ccccc3nc3ccccc23)CC1", "IC50": 860}, {"smiles": "COc1cc(C=NNc2nc(Nc3ccccc3)nc(Nc3ccccc3)n2)ccc1OCc1ccccc1[N+](=O)[O-]", "IC50": 810}, {"smiles": "N#Cc1ccc(OCCN(Cc2ccccc2C(F)(F)F)c2ccc(C#N)c(C(F)(F)F)c2)cc1", "IC50": 280}, {"smiles": "C/C(=C\\C(=O)NC1CC1)c1ccccc1OCc1ccccc1", "IC50": 500}, {"smiles": "Cc1cc(C)c2c(c1)C(=NO)CCN2", "IC50": 940}, {"smiles": "CC(C)[C@H](NC(=O)c1ccc(O)c(-c2ccc(Cl)c(Cl)c2)c1)C(=O)NC1CCCCCC1", "IC50": 220}, {"smiles": "COc1cccc(CCNCc2ccc(-c3cccc(CNC4CCCC4)c3)cc2)c1", "IC50": 730}, {"smiles": "Cc1[nH]c(C)c(-c2ccc(OCc3ccc(F)cc3)cc2)c(=O)c1Br", "IC50": 80}, {"smiles": "CCN1CCC(N(Cc2ccc(-c3ccc(C(F)(F)F)cc3)cc2)C(=O)Cn2c(SCc3ccc(F)cc3)nc(=O)c3c2CCC3)CC1", "IC50": 990}, {"smiles": "O=C(NCCCCN1CCC(c2ccc3c(c2OCc2ccncc2)CCCC3)CC1)c1ccc(-c2ccc(C(F)(F)F)cc2)cc1", "IC50": 170}, {"smiles": "COc1ccc(NC(=O)Nc2cc(C)nc3cccnc23)cc1Cn1ccnc1", "IC50": 740}, {"smiles": "CCOc1ccnc(=O)[nH]1", "IC50": 460}, {"smiles": "O=C(NCCOc1ccccc1)[C@H](Cc1ccccc1)Nc1ccnc(NCC2CCCCC2)n1", "IC50": 1200}, {"smiles": "O=S(=O)(c1cccc(F)c1)c1ccc(Nc2ncnc3cc(Br)sc23)cc1Cl", "IC50": 1030}, {"smiles": "NC(=O)c1cccc(C(=O)Nc2ccc(-c3cccc(-c4nc5ccc(F)cc5[nH]4)c3)cc2)c1", "IC50": 870}, {"smiles": "COc1cc(NC(=O)/C=C/c2cccc3cc[nH]c23)ccc1OCCN(C(C)C)C(C)C", "IC50": 270}, {"smiles": "O=C(NCC1CCC(CNCCc2ccccc2)CC1)Nc1ccc(Cl)c(Cl)c1", "note": "(stereo not given)", "IC50": 740}, {"smiles": "O=C(Nc1cc(F)c(F)c(-c2cccnc2)c1)N1CCc2cc(Cl)c(Cl)cc21", "IC50": 840}, {"smiles": "Cc1ccoc1C(=O)Nc1cccc(-c2cccc(-c3nc4c(C)cccc4[nH]3)c2)c1", "IC50": 670}, {"smiles": "O=C(/C=C/C=C/c1ccc(Cl)c(Cl)c1)NCCCCCN1CCCC2CCCCC21", "note": "(stereo not given)", "IC50": 950}, {"smiles": "COc1ccc2ncc(C#N)c(CCN3[C@@H]4CC[C@H]3CC(NCc3ccc5c(n3)NC(=O)CS5)C4)c2c1", "note": "(stereo not given in full)", "IC50": 810}, {"smiles": "CC(C)Cc1cn(-c2nc(C(=N)N)cs2)c2cc(Cl)ccc12", "IC50": 150}, {"smiles": "COc1ccccc1NC(=O)Nc1ccc(-c2ccc(-c3nc4ccc(C(F)(F)F)cc4[nH]3)cc2)cc1", "IC50": 540}, {"smiles": "O=C(CCc1cnc[nH]1)Nc1ccc(-c2ccc(-c3nc4ccc(F)cc4[nH]3)cc2)cc1", "IC50": 690}, {"smiles": "Cc1cc(Nc2ccc(O)cc2)nc2cccc(O)c12", "IC50": 740}]}]}
